{"source": "paper PMC10989010", "about": "“A panel of janus kinase inhibitors identified with anti-inflammatory effects protect mice from lethal influenza virus infection” (Antimicrobial Agents and Chemotherapy, 2024)", "key": {"MCP1": {"system": "MCP1", "assay": "cells", "type": "cell-based, human", "conditions": "Homo sapiens, U-937, 72 h, read-out: IC50 MCP1"}, "[1]": {"system": "TNF-α, RANTES, IP-10, IL-10, MIP-1α, IL-8, MCP-1, and IL-6", "assay": "ELISA of pro-inflammatory cytokines and chemokines in BALF of infected mice", "type": "in vivo", "conditions": "300 TCID50; 20 mg/kg/d; day 7 p.i.; versus placebo", "method": "Mouse IL-10 (Cat. No. 431414), IL-6 (Cat. No. 431304), and TNF-α (Cat. No. 430901) ELISA kits were obtained from BioLegend (San Diego, USA). Mouse IL-8 (CME0008), MCP-1 (CME0046), and IP-10 (CME0051) ELISA kits were purchased from 4A Biotech (Beijing, China). Mouse CCL3/MIP-1α (EK261/2-96) ELISA kit was bought from Multi Sciences (Hangzhou, China). Mouse CCL5/RANTES (BSEM-048–96T) ELISA kit was obtained from Biosharp (Hefei, China). The ELISA was conducted by following the manufacturer’s instructions."}, "IL-8": {"system": "IL-8", "assay": "U937 cell-based anti-inflammatory assay for influenza virus infection, IL-8 production (AlphaLISA)", "set-up": "species or system human", "conditions": "Homo sapiens, U-937, 72 h, read-out: IC50 IL-8", "method": "U937 cells were seeded in a 96-well culture plate at a density of 1.5 × 10^5 cells per well and incubated for 24 hours prior to virus infection. Subsequently, the cells in each well were infected with the PR8 virus at a multiplicity of infection of 0.05 and treated with serially diluted drugs or left untreated as a control. The drugs were serially diluted threefold, starting from an initial concentration of 200 µM down to 0.01 µM. […] Following this incubation, the supernatants were collected and subjected to AlphaLISA analysis to determine IL-8, IP-10, and MCP1 protein levels.\nThe AlphaLISA detection kits employed in this study were IL-8 (PerkinElmer AL224), IP-10 (PerkinElmer AL259), and MCP1 (PerkinElmer, AL244). U937 cell culture supernatants were measured for IL-8, IP-10, and MCP-1 protein levels using AlphaLISA assay as per the manufacturer’s recommendations. The ELISA and AlphaLISA plates were read using the Varioskan LUX multimode microplate reader (Thermo Scientiﬁc, Waltham, MA, USA)."}, "lung tissues": {"system": "lung tissues", "assay": "Lung tissues histopathology (HE staining) of infected mice", "type": "in vivo", "conditions": "300 TCID50; 20 mg/kg/d; day 7 p.i.", "method": "The H&E staining experiments were performed according to the previous report ([46]). Briefly, all the mouse lung tissues were fixed in 4% paraformaldehyde overnight, embedded in paraffin, and cut into 4 µm sections. The sections were stained with hematoxylin solution, treated with hematoxylin differentiation solution and hematoxylin Scott’s tap water bluing, and rinsed with tap water. The sections were dehydrated in 85% ethanol for 5 minutes, followed by 5 minutes in 95% ethanol, and stained with eosin dye for 5 minutes. After dehydration, all the sections were sealed with neutral gum. Each section was examined under the microscope. The slides were randomly read and reviewed for tissue damage, necrosis, and inflammatory cell infiltration."}, "PR8 virus": {"system": "PR8 virus", "assay": "Viral titers in BALF by TCID50 assay using MDCK cells", "type": "in vivo", "conditions": "300 TCID50; 20 mg/kg/d; day 7 p.i.; treated versus untreated mice", "method": "Madin-Darby canine kidney (MDCK) cells (ATCC CCL-34™) were maintained in Dulbecco’s modified Eagle’s medium (DMEM, Gibco, Carlsbad, CA) supplemented with 10% fetal bovine serum (Gibco), 100 U/mL penicillin, and 100 µg/mL streptomycin. Human monocyte cell line U937 (CRL-1593.2) was cultured in RPMI 1640 medium supplemented with 10% fetal bovine serum (Gibco), 100 U/mL penicillin, and 100 µg/mL streptomycin. All these cells were maintained at 37℃ in a 5% CO2 incubator. […] The viral titers were measured using 50% tissue culture infective dose (TCID50) assay in MDCK cells. The 10-day-old embryonated chicken eggs were obtained from Guangdong Wens Dahuanong Biotechnology Co., Ltd (Guangdong, China). Six-week-old BALB/c mice were purchased from Guangdong Medical Laboratory Animal Center (GDMLAC, Guangdong, China) and housed under specific pathogen-free conditions."}, "U937 cells": {"system": "U937 cells", "assay": "Cytotoxicity assay (CellTiter-Glo)", "type": "cell-based, human", "conditions": "U937 cells; CellTiter-Glo; mean of three independent experiments", "method": "The compound cytotoxicity was determined by CellTiter-Glo Assay (Promega, Madison, WI, USA). After adding 15 µL of CellTiter-Glo reagent to each well, plates were incubated at room temperature for 15 minutes with shaking. The luminescence intensity was determined by a multimode plate reader (Wallac Envision, PerkinElmer, MA, USA)."}, "[2]": {"conditions": "stated as reason for selection; no test or reference printed; cited from earlier work"}, "[3]": {"system": "neutrophils and macrophages", "assay": "Flow cytometry of BALF cells of infected mice", "type": "in vivo", "conditions": "20 mg/kg/d, day 7 p.i.", "method": "The mouse was euthanized and affixed onto a surgical plate, followed by disinfection of the neck using 70% ethanol. An incision was made on the neck skin using scissors to expose the trachea. Subsequently, a 0.2 cm incision was created on the trachea with surgical scissors, and a gavage needle was carefully inserted into it. The trachea was tied around the needle using cotton thread to secure the needle in place. Then, sterile PBS solution loaded in a 1 mL syringe was gently injected into the lung. The thorax of the mouse was massaged to facilitate even distribution of the solution before careful aspiration. Following the removal of the syringe from the needle, lavage fluid obtained from this process was transferred to an ice-cooled 1.5 mL tube for further processing or stored at −80℃ for subsequent analysis. Finally, resuspension and staining of cell pellet obtained after centrifugation of lavage fluid for 10 minutes at 1,000 × g and 4℃ were performed for subsequent analysis using flow cytometry ([45]).\nBALF samples were washed with FACS (fluorescence-activated cell sorting) buffer (2% BSA in PBS), followed by red blood cell lysis using Red Cell Lysis Buffer (Tiangen, Beijing, China). For the surface staining, cells were stained with the following fluorochrome-labeled antibodies (Biolegend, San Diego, USA): PE-Cy7-conjugated Ly6C (clone HK1.4, dilution 1:200), PE-conjugated CD11b (clone M1/70, dilution 1: 200), APC-conjugated Ly6G (clone 1A8, dilution 1: 200), and FITC-conjugated CD11c (clone N418, dilution 1: 100). Cells were washed with PBS twice and counterstained with 7AAD (Biolegend, San Diego, USA) to differentiate apoptotic and dead cells, then analyzed using a BD FACSVerse Cell Analyzer (BD, New Jersey, USA)."}}, "note": "pIC50: −log10 of the molar value. Structures can show the parent of a compound that is named as a salt."}
{"smiles": "CNS(=O)(=O)C[C@H]1CC[C@H](N(C)c2ncnc3[nH]ccc23)CC1", "note": "[Oclacitinib maleate]", "values": [{"measurement": "pIC50", "setting": "MCP1", "result": 6.72}, {"measurement": "production of all eight cytokines and chemokines (TNF-α, RANTES, IP-10, IL-10, MIP-1α, IL-8, MCP-1, IL-6) in BALF", "setting": "[1]", "result": "significantly reduced"}, {"measurement": "pIC50", "setting": "IL-8", "result": 7.30}, {"measurement": "lung histopathology (HE staining)", "setting": "lung tissues", "result": "remained primarily intact, with fewer inflammatory cells present"}, {"measurement": "viral titers in the BALF", "setting": "PR8 virus", "result": "no significant differences"}, {"measurement": "CC50", "setting": "U937 cells", "result": 50000, "unit": "nM"}, {"measurement": "water solubility", "setting": "[2]", "result": "high water solubility"}, {"measurement": "number of neutrophils and macrophages in the lungs", "setting": "[3]; BALF flow cytometry, versus placebo", "result": "reduce the number of neutrophils and macrophages"}, {"measurement": "Ly6G- (flow cytometry gate, BALF)", "setting": "[3]; Fig 4B, 300 TCID50", "result": 81.6}, {"measurement": "Macrophage (flow cytometry gate, BALF)", "setting": "[3]; Fig 4B, 300 TCID50", "result": 8.05}, {"measurement": "Neurophil (flow cytometry gate, BALF)", "setting": "[3]; Fig 4B, 300 TCID50", "result": 15.2}]}
